Assay results: patent US6566048B1, “Acetyl-COA-carboxylase from Candida albicans” (Syngenta Limited, priority 1997, dated 2003)
In brackets after ≈: the same amount, converted by molar mass.

Tests used:
[1] = test system: S. cerevisiae PNS 117b 6A; assay: In-vitro antifungal activity, broth-dilution liquid MIC; format: cell-based; conditions: Saccharomyces cerevisiae, PNS117B6A, 30° C., 48h, MIC determined visually, read-out: Liquid MIC (μg/ml) for Soraphen A
Experimental: (§1) Compounds were tested over a concentration range of 1024-0.00098 μg/ml by a broth-dilution method in microtitre plates using doubling dilutions in YPD or YPGal (both containing 500 μg/l d-biotin). Stock solutions of inhibitors were prepared at 51.2 mg/ml in Dimethyl sulphoxide (DMSO) (final assay concentration of DMSO was 2% v/v). Each Yeast culture was added to the well to give a final 10^4 cfu/well. The plates were incubated at 30° C. for 48h and MIC's determined visually.

S. cerevisiae Mey 134 = assay: as above; format: cell-based; conditions: Saccharomyces cerevisiae, MEY134, 30° C., 48h, MIC determined visually, read-out: Liquid MIC (μg/ml) for Soraphen A
Experimental: as §1

[2] = test system: S. cerevisiae PNS 120a 6C; assay: as above; format: cell-based; conditions: Saccharomyces cerevisiae, PNS120A6C, 30° C., 48h, MIC determined visually, read-out: Liquid MIC (μg/ml) for Soraphen A
Experimental: as §1

S. cerevisiae CLS2-13 = assay: as above; format: cell-based; conditions: Saccharomyces cerevisiae, CLS213, 30° C., 48h, MIC determined visually, read-out: Liquid MIC (μg/ml) for Soraphen A
Experimental: as §1

[3] = test system: S. cerevisiae PNS 120b 1C; assay: as above; format: cell-based; conditions: Saccharomyces cerevisiae, PNS120B1C, 30° C., 48h, MIC determined visually, read-out: Liquid MIC (μg/ml) for Soraphen A
Experimental: as §1

[4] = test system: S. cerevisiae PNS 117a 5C; assay: as above; format: cell-based; conditions: Saccharomyces cerevisiae, PNS117A5C, 30° C., 48h, MIC determined visually, read-out: Liquid MIC (μg/ml) for Soraphen A
Experimental: as §1

C. albicans B2630 = assay: as above; format: cell-based; conditions: Candida albicans, 30° C., 48h, MIC determined visually, read-out: Liquid MIC (μg/ml) for Soraphen A
Experimental: as §1

C. albicans ACC1 = conditions: isolated fully functional C. albicans ACC1
Experimental: The assay was conducted in 96 well, flat bottomed polystyrene microtitre plates. All test and control samples were tested in duplicate in this assay.
100 μl of the ACCase enzyme preparation (in 50 mM Tris pH7.5 containing 1 mM EGTA, 1 mM EDTA (disodium salt), 1 mM DTT, 0.25 mM Pefabloc hydrochloride, 1 μM Leupeptin hemisulphate, 1 μM Pepstatin A, 0.5 μM Trypsin inhibitor, and 20% w/v glycerol) was added to each well of the microtitre plate. Each well contained either a 3 μl test sample made up in DMSO or 3 μl DMSO alone (NB. Final DMSO concentrations in the assay were 1.48% v/v). The microtitre plates were placed in a water bath maintained at 37° C. 10 μl of [^14C] NaHCO3 containing 9.25 kBq in 378 mM NaHCO3 was then added to each well. […]
After the addition of the stop reagent the plates were left open in the water bath for a further 30 minutes to allow the ^14CO2 to escape. […] Radioactivity in the samples was then determined by scintillation counting (Wallac WinSpectral 1414, Turku, Finland).
IC50's were calculated from the data using non-linear regression techniques available in the ORIGIN software package (Microcal Software Inc., Massachusetts, USA).

[5] = molecular target: ACCase preparation from S. cerevisiae PNS 117b 6A (Candida albicans, UniProt A0A1D8PRR7); assay: In-vitro ACCase assay ([14C] NaHCO3 incorporation); format: biochemical, C. albicans; conditions: 37° C., 5 minutes, read-out: IC50 for Soraphen A (nM) against ACCase preparations
Experimental: (§2) Cultures of the appropriate yeast strains were grown to the exponential phase of growth (for Saccharomyces and Candida strains respectively). These were then harvested by centrifugation (4400 g, 10 min, 4° C.), washed twice in 700 ml of 50 mM Tris pH7.5 containing 20% w/v gylcerol, resuspending the cell pellet each time. […] The volume of buffer required was dependent on the total packed cell wet weight. (i.e. 1 ml buffer added per 6 gm of packed wet cell pellet).
(§3) The cell paste was homogenised using a pre-cooled Bead-Beater (Biospec Products, Bartlesville, Okla. 74005) with 4×10 second Bursts, allowing 20 second intervals on ice. The preparation was then centrifuged at 31,180 g for 30 minutes. After centrifugation the supernatant was immediately decanted into a container, then aliquoted before snap freezing in liquid nitrogen.

[6] = molecular target: ACCase preparation from S. cerevisiae CLS2-13 (C. albicans ACC1 gene in Yep24) (Candida albicans, UniProt A0A1D8PRR7); assay: In-vitro ACCase assay ([14C] NaHCO3 incorporation); format: biochemical; conditions: 37° C., 5 minutes, read-out: IC50 for Soraphen A (nM) against ACCase preparations
Experimental: as §2, §3

[7] = molecular target: ACCase preparation from S. cerevisiae PNS 117a 5C (Candida albicans, UniProt A0A1D8PRR7); assay: In-vitro ACCase assay ([14C] NaHCO3 incorporation); format: biochemical; conditions: 37° C., 5 minutes, read-out: IC50 for Soraphen A (nM) against ACCase preparations
Experimental: as §2, §3

Chain of ACCase preparation from S. cerevisiae CLS2-13 (C. albicans ACC1 gene in Yep24) (A0A1D8PRR7 entry or part of it): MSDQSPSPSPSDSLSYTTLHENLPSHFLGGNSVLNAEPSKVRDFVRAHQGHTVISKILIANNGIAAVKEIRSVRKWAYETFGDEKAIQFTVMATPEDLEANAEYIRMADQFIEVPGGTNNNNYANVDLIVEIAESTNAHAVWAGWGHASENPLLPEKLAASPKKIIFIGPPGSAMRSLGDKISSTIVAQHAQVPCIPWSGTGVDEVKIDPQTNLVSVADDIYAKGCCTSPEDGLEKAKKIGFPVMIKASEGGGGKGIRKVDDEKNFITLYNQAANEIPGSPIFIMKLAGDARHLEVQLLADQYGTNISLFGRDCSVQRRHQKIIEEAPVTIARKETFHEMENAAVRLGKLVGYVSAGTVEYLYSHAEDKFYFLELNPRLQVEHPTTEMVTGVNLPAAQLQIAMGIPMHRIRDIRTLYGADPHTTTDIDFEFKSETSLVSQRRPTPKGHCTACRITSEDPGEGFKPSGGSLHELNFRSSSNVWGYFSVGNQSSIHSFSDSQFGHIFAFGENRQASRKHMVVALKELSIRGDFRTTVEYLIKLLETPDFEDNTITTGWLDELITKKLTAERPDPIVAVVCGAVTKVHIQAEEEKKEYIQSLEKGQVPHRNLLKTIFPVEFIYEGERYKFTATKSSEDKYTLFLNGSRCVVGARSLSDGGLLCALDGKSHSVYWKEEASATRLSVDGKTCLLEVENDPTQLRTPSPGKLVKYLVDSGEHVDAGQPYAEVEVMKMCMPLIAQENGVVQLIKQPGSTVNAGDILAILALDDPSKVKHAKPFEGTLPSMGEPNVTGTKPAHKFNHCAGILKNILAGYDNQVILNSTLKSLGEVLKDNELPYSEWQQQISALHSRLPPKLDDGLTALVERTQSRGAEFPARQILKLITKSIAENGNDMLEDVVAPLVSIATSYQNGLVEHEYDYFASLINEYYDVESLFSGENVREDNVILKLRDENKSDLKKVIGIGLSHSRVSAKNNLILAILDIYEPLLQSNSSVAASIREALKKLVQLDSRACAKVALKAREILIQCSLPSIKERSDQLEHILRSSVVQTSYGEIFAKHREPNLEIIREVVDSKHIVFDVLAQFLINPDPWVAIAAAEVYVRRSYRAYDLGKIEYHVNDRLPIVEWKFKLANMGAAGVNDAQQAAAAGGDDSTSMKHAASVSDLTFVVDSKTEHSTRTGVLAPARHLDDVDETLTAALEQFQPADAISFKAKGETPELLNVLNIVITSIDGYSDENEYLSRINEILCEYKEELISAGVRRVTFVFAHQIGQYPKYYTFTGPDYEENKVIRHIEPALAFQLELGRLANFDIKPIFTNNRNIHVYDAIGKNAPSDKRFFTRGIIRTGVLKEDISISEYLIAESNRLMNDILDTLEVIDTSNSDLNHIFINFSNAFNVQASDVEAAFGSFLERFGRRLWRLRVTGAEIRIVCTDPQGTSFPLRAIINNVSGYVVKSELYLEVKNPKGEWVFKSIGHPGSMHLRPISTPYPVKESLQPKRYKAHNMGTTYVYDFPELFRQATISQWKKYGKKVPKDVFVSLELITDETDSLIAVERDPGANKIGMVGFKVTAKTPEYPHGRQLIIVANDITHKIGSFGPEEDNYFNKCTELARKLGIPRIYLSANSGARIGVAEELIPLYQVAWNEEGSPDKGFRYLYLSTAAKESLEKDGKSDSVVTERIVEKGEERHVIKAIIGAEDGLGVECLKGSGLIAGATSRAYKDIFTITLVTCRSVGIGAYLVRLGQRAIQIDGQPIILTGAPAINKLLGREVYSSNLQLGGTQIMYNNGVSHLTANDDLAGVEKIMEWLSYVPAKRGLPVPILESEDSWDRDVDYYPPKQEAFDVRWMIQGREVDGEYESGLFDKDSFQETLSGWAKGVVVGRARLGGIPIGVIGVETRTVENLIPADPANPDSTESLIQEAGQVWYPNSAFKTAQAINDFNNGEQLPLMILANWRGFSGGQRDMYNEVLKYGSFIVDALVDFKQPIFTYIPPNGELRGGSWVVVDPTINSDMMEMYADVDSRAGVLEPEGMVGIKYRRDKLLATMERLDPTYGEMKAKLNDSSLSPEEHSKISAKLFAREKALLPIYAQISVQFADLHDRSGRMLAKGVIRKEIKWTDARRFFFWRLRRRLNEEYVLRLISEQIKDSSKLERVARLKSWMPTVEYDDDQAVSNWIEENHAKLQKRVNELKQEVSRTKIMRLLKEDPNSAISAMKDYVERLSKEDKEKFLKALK
Chain of ACCase preparation from S. cerevisiae PNS 117b 6A (A0A1D8PRR7 entry or part of it): as above

CO[C@H]1CCCC[C@@H](c2ccccc2)OC(=O)[C@@H](C)[C@@]2(O)O[C@H]([C@@H](C)[C@H](O)[C@H]2OC)[C@@H](C)/C=C/[C@H]1OC [Soraphen A]
MIC [1]: 4 µg/mL (≈ 7.68 µM)
MIC (S. cerevisiae Mey 134): 8 µg/mL (≈ 15.4 µM)
MIC [2]: 0.5 µg/mL (≈ 0.96 µM)
MIC (S. cerevisiae CLS2-13): 2 µg/mL (≈ 3.84 µM)
MIC [3]: 0.125 µg/mL (≈ 0.24 µM)
MIC [4]: 2 µg/mL (≈ 3.84 µM)
MIC (C. albicans B2630): 0.003 µg/mL (≈ 0.00576 µM)
inhibition by SoraphenA (C. albicans ACC1): 100%
IC50 [5]: 13.1 nM
IC50 [6]: 2.5 nM
IC50 [7]: 17.5 nM
